In patent US5707966A, “Antithrombotic agents” (Eli Lilly and Company, priority 1995, dated 1998):
Counter-ions that a name gives are not always drawn. Like-named read-outs stand apart in the source and are kept apart here.

Columns and labels:
Assay type in all cases: biochemical
Bovine trypsin = molecular target: T1, Bovine trypsin (Bos taurus, UniProt P00760); assay: Kass with trypsin, chromogenic substrate
T1 construct: Bovine trypsin is purchased; purchased Worthington Biochemicals, Freehold, N.J
T1 sequence (P00760 24-246): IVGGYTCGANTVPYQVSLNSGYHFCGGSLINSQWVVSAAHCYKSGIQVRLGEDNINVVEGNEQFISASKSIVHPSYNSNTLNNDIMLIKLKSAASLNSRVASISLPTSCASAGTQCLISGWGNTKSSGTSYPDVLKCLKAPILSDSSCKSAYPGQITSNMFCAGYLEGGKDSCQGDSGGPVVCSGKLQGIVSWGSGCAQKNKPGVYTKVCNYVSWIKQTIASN

Human Thrombin = Human Thrombin (Homo sapiens, UniProt P00734); assay: Inhibition of amidase activity of thrombin (Kass)
t-PA = molecular target: T2, t-PA (Homo sapiens, UniProt P00750); assay: Kass with t-PA, chromogenic substrate; conditions: substrate H-D-Ile-Pro-Arg-p-nitroanilide
T2 construct: purchased American Diagnostica, Greenwich, Conn
T2 sequence (P00750 36-562): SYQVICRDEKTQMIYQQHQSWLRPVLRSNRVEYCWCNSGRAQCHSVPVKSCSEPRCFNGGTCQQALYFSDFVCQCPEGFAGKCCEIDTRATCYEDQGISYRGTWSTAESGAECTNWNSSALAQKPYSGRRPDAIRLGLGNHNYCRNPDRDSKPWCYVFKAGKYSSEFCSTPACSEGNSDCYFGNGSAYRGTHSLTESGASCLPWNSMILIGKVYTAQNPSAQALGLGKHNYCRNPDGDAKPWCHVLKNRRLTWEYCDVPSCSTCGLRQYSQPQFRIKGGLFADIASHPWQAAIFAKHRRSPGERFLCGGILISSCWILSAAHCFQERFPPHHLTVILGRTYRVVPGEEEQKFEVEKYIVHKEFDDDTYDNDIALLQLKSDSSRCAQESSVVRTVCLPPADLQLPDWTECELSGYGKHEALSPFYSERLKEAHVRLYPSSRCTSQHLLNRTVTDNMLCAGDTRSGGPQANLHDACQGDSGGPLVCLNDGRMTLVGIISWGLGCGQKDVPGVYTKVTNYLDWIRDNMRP
Protocol: By substantially following the procedures described above for human thrombin, and using other human blood coagulation system serine proteases and proteases of the fibrinolytic system with the appropriate chromogenic substrates, identified below, selectivity of the compounds of the present invention with respect to the coagulation factor serine proteases and with respect to the fibrinolytic system serine proteases are evaluated as well as their substantial lack of interference with serine proteases of the fibrinolytic system. Thrombin inhibitors preferably should spare fibrinolysis induced by urokinase, tissue plasminogen activator (t-PA) and streptokinase. This would be important to the therapeutic use of such agents as an adjunct to streptokinase, t-PA or urokinase thrombolytic therapy and to the use of such agents as an endogenous fibrinolysis-sparing (with respect to t-PA and urokinase) antithrombotic agent. In addition to the lack of interference with the amidase activity of the fibrinolytic proteases, such fibrinolytic system sparing can be studied by the use of human plasma clots and their lysis by the respective fibrinolytic plasminogen activators.
Human plasmin is purchased from Boehringer Mannheim, Indianapolis, Ind.; nt-PA is purchased as single chain activity reference from American Diagnostica, Greenwich, Conn. modified-t-PA6 (mt-PA6) is prepared at Eli Lilly and Company by procedure known in the art (See, Burck, et al., J. Biol. Chem., 265, […] (1990). Plasmin chromogenic substrate H-D-Val-Leu-Lys-p-nitroanilide and tissue plasminogen activator (t-PA) substrate H-D-Ile-Pro-Arg-p-nitroanilide are purchased from Kabi Vitrum, Stockholm, Sweden.

Human plasmin = molecular target: T3, Human plasmin (Homo sapiens, UniProt P00747); assay: Kass with plasmin, chromogenic substrate
T3 construct: Human plasmin is purchased; purchased Boehringer Mannheim, Indianapolis, Ind
T3 sequence (P00747 97-810): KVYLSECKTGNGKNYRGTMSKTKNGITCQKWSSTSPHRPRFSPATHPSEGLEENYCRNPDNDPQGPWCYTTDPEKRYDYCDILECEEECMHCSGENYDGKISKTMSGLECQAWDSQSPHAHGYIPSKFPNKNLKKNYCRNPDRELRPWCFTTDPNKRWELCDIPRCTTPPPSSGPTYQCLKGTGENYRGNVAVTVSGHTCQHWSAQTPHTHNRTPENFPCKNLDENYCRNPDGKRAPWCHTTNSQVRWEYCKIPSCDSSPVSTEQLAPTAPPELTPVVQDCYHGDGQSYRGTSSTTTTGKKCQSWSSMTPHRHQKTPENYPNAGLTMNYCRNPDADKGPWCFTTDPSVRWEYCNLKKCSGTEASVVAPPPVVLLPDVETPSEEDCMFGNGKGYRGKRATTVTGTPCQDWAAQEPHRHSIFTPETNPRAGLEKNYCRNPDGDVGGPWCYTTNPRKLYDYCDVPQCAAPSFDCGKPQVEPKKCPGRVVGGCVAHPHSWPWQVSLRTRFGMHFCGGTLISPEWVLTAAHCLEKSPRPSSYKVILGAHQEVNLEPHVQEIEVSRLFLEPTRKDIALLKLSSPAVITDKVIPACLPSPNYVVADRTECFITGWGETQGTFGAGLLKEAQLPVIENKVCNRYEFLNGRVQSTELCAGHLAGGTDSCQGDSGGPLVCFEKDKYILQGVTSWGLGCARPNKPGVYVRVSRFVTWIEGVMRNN
T3 sequence (P00747 97-580 partner limits assumed): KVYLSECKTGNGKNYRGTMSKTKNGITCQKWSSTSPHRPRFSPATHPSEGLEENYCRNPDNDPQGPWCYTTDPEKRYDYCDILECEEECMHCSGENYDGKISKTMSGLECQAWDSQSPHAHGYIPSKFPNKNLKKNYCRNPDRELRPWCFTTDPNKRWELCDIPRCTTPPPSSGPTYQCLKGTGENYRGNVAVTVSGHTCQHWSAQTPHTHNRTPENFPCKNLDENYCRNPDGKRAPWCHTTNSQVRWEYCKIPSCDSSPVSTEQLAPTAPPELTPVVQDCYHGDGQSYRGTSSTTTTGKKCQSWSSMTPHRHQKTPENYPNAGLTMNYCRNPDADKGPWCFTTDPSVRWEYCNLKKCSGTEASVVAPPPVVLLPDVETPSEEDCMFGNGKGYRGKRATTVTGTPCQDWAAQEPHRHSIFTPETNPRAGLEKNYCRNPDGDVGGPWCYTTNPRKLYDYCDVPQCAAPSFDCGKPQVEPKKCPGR

Human plasma [1] = assay: Human plasma anticoagulation, prothrombin time (PT); conditions: concentration required to double the PT, linear extrapolation
Outline: (§1)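 Prolongation of human plasma clotting was measured for PT (thromboplastin reagent), APTT (Actin, 120 s, then 0.02M CaCl2) and TT (bovine thrombin, 10 NIH units/mL). Concentration needed for a doubled time was estimated by linear extrapolation.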

Human plasma [2] = assay: Human plasma anticoagulation, activated partial thromboplastin time (APTT); conditions: concentration required to double the APTT, linear extrapolation
Outline: as §1

Human plasma [3] = assay: Human plasma anticoagulation, thrombin time (TT); conditions: concentration required to double the thrombin time, linear extrapolation
Outline: as §1

factor Xa = molecular target: T4, factor Xa (Homo sapiens, UniProt P00742); assay: Kass with factor Xa, chromogenic substrate
T4 construct: Human factors X, Xa, IXa, XIa, and XIIa are purchased; purchased Enzyme Research Laboratories, South Bend, Ind
T4 sequence (P00742 235-488 limits assumed): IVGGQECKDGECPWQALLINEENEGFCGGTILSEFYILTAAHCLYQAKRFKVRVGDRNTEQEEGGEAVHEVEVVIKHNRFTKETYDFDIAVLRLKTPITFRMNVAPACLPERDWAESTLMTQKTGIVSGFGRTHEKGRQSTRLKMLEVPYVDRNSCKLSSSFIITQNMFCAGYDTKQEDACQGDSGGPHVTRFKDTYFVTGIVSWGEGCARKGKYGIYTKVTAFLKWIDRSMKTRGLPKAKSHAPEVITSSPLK
T4 sequence (P00742 41-179 partner limits assumed): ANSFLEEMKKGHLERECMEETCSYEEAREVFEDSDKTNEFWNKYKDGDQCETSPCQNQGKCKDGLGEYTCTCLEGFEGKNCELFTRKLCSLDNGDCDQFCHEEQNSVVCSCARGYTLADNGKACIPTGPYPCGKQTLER

[4] = substrate N-Benzoyl-Phe-Val-Arg-p-nitroanilide
[5] = mean over a range of concentrations, […]
[6] = substrate H-D-Val-Leu-Lys-p-nitroanilide
[7] = substrate N-Benzoyl-Ile-Glu-Gly-Arg-p-nitroanilide

Compound | Kass Trypsin (Bovine trypsin; [4]) | Kass Human Thrombin (Human Thrombin; [5]) | Kass t-PA (t-PA) | Kass Plasmin (Human plasmin; [6]) | Human Plasma Anticoagulation 2× Clotting time PT (Human plasma [1]) | Human Plasma Anticoagulation 2× Clotting time APTT (Human plasma [2]) | Human Plasma Anticoagulation 2× Clotting time TT (Human plasma [3]) | Kass Xa (factor Xa; [7]) | Kass Human Thrombin (Human Thrombin) | Kass Plasmin (Human plasmin) | Kass Xa (factor Xa) | Kass Trypsin (Bovine trypsin)
O=C(O)CN[C@H](CC1CCCCC1)C(=O)N1CCC[C@H]1C(=O)NCC1CCNCC1 [Example 53, HO2 CCH2 -D-Cha-Pro-4-NHCH2 -piperidine.HCl] | 0.1 × 10^6 (L/mole) | 0.36 × 10^6 (L/mole) | < 0.001 × 10^6 (L/mole) | < 0.001 × 10^6 (L/mole) | 34,500 ng/mL | 33,800 ng/mL | 1,400 ng/mL | < 0.001 × 10^6 (L/mole) | – | – | – | –
N=C(N)c1ccc(CCNC(=O)[C@@H]2CCCN2C(=O)[C@@H]2NCC[C@@H]3CCCC[C@@H]32)cc1 [Example 28, 1-Piq-Pro-p-NHCH2 CH2 --C6 H4 C(=NH)NH2.2HCl] | 0.11 × 10^6 (L/mole) | 0.95 × 10^6 (L/mole) | < 0.001 × 10^6 (L/mole) | < 0.001 × 10^6 (L/mole) | 8,300 ng/mL | 8,100 ng/mL | 520 ng/mL | 0.01 × 10^6 (L/mole) | – | – | – | –
O=C(O)CN[C@H](CC1CCCCC1)C(=O)N1CCC[C@H]1C(=O)NCCC1CCNCC1 [Example 54, HO2 CCH2 -D-Cha-Pro-4-NHCH2 CH2 -piperidine.HCl] | 0.52 × 10^6 (L/mole) | 2.8 × 10^6 (L/mole) | < 0.001 × 10^6 (L/mole) | 0.01 × 10^6 (L/mole) | 2,200 ng/mL | 3,300 ng/mL | 140 ng/mL | < 0.001 × 10^6 (L/mole) | – | – | – | –
HOOCCH2 -D-Phe-Pro-p-NHCH2 C6 H4 C(NH)NH2.HCl [Example 46] | 48 × 10^6 (L/mole) | – | 0.01 × 10^6 (L/mole) | – | 77 ng/mL | 67 ng/mL | 2 ng/mL | – | 240 | 0.13 | 0.07 | –
CCS(=O)(=O)N[C@@H](C(=O)N1[C@H](C(=O)NCc2ccc(C(=N)N)cc2)C[C@@H]2CCCC[C@@H]21)c1ccccc1 (relative stereo) [Example 44, EtSO2 -Phg-cis-Ohi-p-NHCH2 C6 H4 C(NH)NH2.HCl] | – | – | 0.04 × 10^6 (L/mole) | – | 170 ng/mL | 100 ng/mL | 4 ng/mL | – | – | 1.8 | 0.66 | 2,600
N=C(N)N1CCC(CCNC(=O)[C@@H]2CCCN2C(=O)[C@@H](CC2CCCCC2)NCC(=O)O)CC1 [Example 57, HO2 CCH2 -D-Cha-Pro-4-NHCH2 CH2 -1-amidinopiperidine.HCl] | 0.24 × 10^6 (L/mole) | – | < 0.001 × 10^6 (L/mole) | 0.01 × 10^6 (L/mole) | 340 ng/mL | 360 ng/mL | 14 ng/mL | 0.01 × 10^6 (L/mole) | 39 | – | – | –
N=C(N)N1CCC(CNC(=O)[C@@H]2CCCN2C(=O)[C@@H](CC2CCCCC2)NCC(=O)O)CC1 [Example 56, HO2 CCH2 -D-Cha-Pro-4-NHCH2 -1-amidinopiperidine.HCl] | 3.6 × 10^6 (L/mole) | 490 × 10^6 (L/mole) | < 0.001 × 10^6 (L/mole) | 0.01 × 10^6 (L/mole) | 200 ng/mL | 160 ng/mL | 5 ng/mL | 0.20 × 10^6 (L/mole) | – | – | – | –
D-hPro-Pro-p-NHCH2 C6 H4 C(NH)NH2.HCl [Example 17] | 3.8 × 10^6 (L/mole) | 33 × 10^6 (L/mole) | 0.0034 × 10^6 (L/mole) | 0.024 × 10^6 (L/mole) | 400 ng/mL | 370 ng/mL | 26 ng/mL | 0.049 × 10^6 (L/mole) | – | – | – | –
1-Piq-Pro-p-NHCH2 C6 H4 C(NH)NH2.2HCl [Example 18] | 14 × 10^6 (L/mole) | 180 × 10^6 (L/mole) | 0.0094 × 10^6 (L/mole) | 0.085 × 10^6 (L/mole) | 170 ng/mL | 79 ng/mL | 7 ng/mL | 0.21 × 10^6 (L/mole) | – | – | – | –
N=C(N)c1ccc(CNC(=O)[C@@H]2C[C@@H]3CCCC[C@@H]3N2C(=O)[C@H]2CCCCN2)cc1 (relative stereo) [Example 20, D-hPro-Ohi-p-NHCH2 C6 H4 C(NH)NH2.3HCl] | 19 × 10^6 (L/mole) | – | 0.0077 × 10^6 (L/mole) | 0.10 × 10^6 (L/mole) | 600 ng/mL | 550 ng/mL | 62 ng/mL | 0.10 × 10^6 (L/mole) | 10 | – | – | –
O=C(O)CN[C@H](CC1CCCCC1)C(=O)N1CCC[C@H]1C(=O)NCCCC1=CCNCC1 [Example 60, HO2 CCH2 -D-Cha-Pro-4-NHCH2 CH2 CH2 -3,4-dehydro-piperidine.HCl] | 0.03 × 10^6 (L/mole) | 0.24 × 10^6 (L/mole) | < 0.001 × 10^6 (L/mole) | < 0.001 × 10^6 (L/mole) | 77,700 ng/mL | 22,200 ng/mL | 3,200 ng/mL | < 0.001 × 10^6 (L/mole) | – | – | – | –
N=C(N)c1ccc(CNC(=O)[C@@H]2CCCN2C(=O)[C@H]2C[C@H]3CCCC[C@H]3CN2)cc1 [Example 19, D-3-Piq-Pro-p-NHCH2 C6 H4 C(NH)NH2.3HCl] | 41 × 10^6 (L/mole) | – | 0.0056 × 10^6 (L/mole) | 0.16 × 10^6 (L/mole) | 540 ng/mL | 300 ng/mL | 58 ng/mL | 0.14 × 10^6 (L/mole) | – | – | – | –
